Data on three compounds can be found in publication PMC3389674, “Comparison of Soluble Guanylate Cyclase Stimulators and Activators in Models of Cardiovascular Disease Associated with Oxidative Stress” (Frontiers in Pharmacology, 2012).

Like-named read-outs stand apart in the source and are kept apart here.

One test deals with dogs. On the set-up: method as in Korkmaz et al., 2009. The conditions noted are these: administered 5 min prior to reperfusion following 60 min global cardiac ischemia; ref Korkmaz et al., 2009; cited from earlier work.
The subject of another test is rat hearts. On the set-up: method as in Krieg et al., 2009. Conditions: administered 5 min prior to reperfusion following 30 min regional ischemia; ref Krieg et al., 2009; cited from earlier work.
The next test relates to rabbit hearts. On the set-up: method as in Krieg et al., 2009; Cohen et al., 2010. The conditions noted are these: administered 5 min prior to reperfusion following 30 min regional ischemia; ref Krieg et al., 2009; Cohen et al., 2010; cited from earlier work.
For a further test, the system named is SHR-SP isolated aorta. The test is described as follows: vasoactivity of SHR-SP isolated aorta (ND, HSFD and after chronic treatment). The conditions noted are these: for EC50: Rattus norvegicus. More on the design: species or system rat. The method, then: In separate studies, endothelial function was assessed following chronic (7 week) BAY 60-4552 or GSK2181236A treatment in SHR-SP on HSFD. SHR-SP fed either normal or HSFD served as controls. Rats were anesthetized and thoracic aorta were isolated and treated with KCl and phenylephrine as described above. Cumulative concentration-response curves to phenylephrine were obtained by adding 0.5 log unit increments (1 nM to 3 μM). Following several washes with KHB, each vessel was contracted to equilibrium with 0.3 μM phenylephrine and tone was reversed by adding cumulative amounts of carbachol at 0.5 log unit intervals (10 nM to 30 μM). Following several KHB washes, the tissues were again contracted to equilibrium with 0.3 μM phenylephrine and tone was reversed by adding cumulative amounts of SNP at 0.5 log unit intervals (0.1 nM to 3 μM). In separate tissues from both the normal and HSFD SHR-SP control groups, the direct vasodilatory effects of BAY 60-4552 and GSK2181236A were investigated. Contractile tone induced by 0.3 μM phenylephrine was reversed by adding cumulative concentrations of BAY 60-4552 or GSK2181236A to the tissue baths at log increments (0.1 nM to 10 μM).

In the case of `O=C(O)CCCCN(CCc1ccccc1OCc1ccc(CCc2ccccc2)cc1)Cc1ccc(C(=O)O)cc1` [BAY 58-2667], the cardiac function result with dogs was “improved cardiac function”. Also, the infarct size result with rat hearts and in the test on rabbit hearts was “decreased infarct size” in each case.
For `CNC[C@H](O)c1cccc(O)c1` [Phenylephrine, phenylephrine], the concentration giving a half-maximal response (EC50) was determined as 72 ± 11 nM with SHR-SP isolated aorta (aorta from HSFD SHR-SP, read-out: Phenylephrine EC50 (contraction)) and 67 ± 6 nM with SHR-SP isolated aorta (aorta from ND SHR-SP, read-out: Phenylephrine EC50 (contraction)). Moreover, the “Phenylephrine Emax” value in the test with SHR-SP isolated aorta (aorta from HSFD SHR-SP) is 83 ± 10 % KCl; with SHR-SP isolated aorta (aorta from ND SHR-SP) it was 90 ± 4 % KCl.
For the compound `C[N+](C)(C)CCOC(N)=O` [Carbachol, carbachol], the 50% effective concentration (EC50) with SHR-SP isolated aorta (aorta from HSFD SHR-SP, read-out: Carbachol EC50 (vasodilation)) turned out to be 260 ± 74 nM; in the test with SHR-SP isolated aorta (aorta from ND SHR-SP, read-out: Carbachol EC50 (vasodilation)), 119 ± 15 nM. In addition, the “Carbachol Emax” value in the test on SHR-SP isolated aorta (aorta from HSFD SHR-SP) is given as 47 ± 11 % reversal of PE tone; with SHR-SP isolated aorta (aorta from ND SHR-SP) it was 85 ± 3 % reversal of PE tone.

The term EC50 denotes the midpoint of the concentration-response curve.
